# Laboratory results: PMC9469500, “Targeting an Initiator Allergen Provides Durable and Expansive Protection against House Dust Mite Allergy” (ACS Pharmacology & Translational Science, 2022)
# Tests used:
# [1] = test system: rat airway epithelial cell line L2; test: Cellular stability in L2 cells; type: in vitro ADME; details: 100 nM compound
# Description: (§1) Cellular Stability of Compounds
# (§2) The cellular stability of compounds in vitro was tested using rat airway epithelial cell line L2 and rat alveolar macrophage line NR8383 (ATCC©CRL-2192™). Assays were performed in replicate and the data expressed as mean ± s.e. mean. L2 cells were cultured to confluence in T25 flasks or 24 -well plates using Kaighn’s modification of Ham’s F12 medium (F12K). Cells were prepared for assay by washing 3 times with serum-free F12K. NR8383 Airway macrophages were grown in suspension culture in F12K, collected by centrifugation, washed in serum-free medium and aliquoted into test plates (1.4 x 10^6 cells/well). Both cell lines were treated with ADI compounds (100 nM) in serum -free F12K in a 5% CO 2 environment at 37 °C. Samples were removed for quantitative analysis by LC -MS-MS using appropriate multiple reaction monitoring transitions for each analyte. […]
# (§3) n-Octanol (0.7 mL), pre -saturated with 10 mM PBS, pH7.4, was added to test compound (~1 mg) in a 2 mL HPLC vial followed by PBS (0. 7 mL), which had been pre -saturated with n -octanol. The mixture was shaken for 90 min before centrifugation for 10 min at 4,000 rpm. The upper organic layer (0.2 mL) and the aqueous layer (0.5 mL) were removed for analysis by LC-MS. Peak identity was confirmed by mass spectrometry and concentration assessed spectrophotometrically using a diode array detector. The log
# [2] = test system: rat alveolar macrophage line NR8383; test: Cellular stability in macrophages; type: in vitro ADME; details: 100 nM compound
# Description: as §1, §2, §3
# plasma stability (rat) = type: in vitro ADME
# plasma stability (human) = type: in vitro ADME
# [3] = Plasma protein binding (human); type: in vitro ADME
# Description: Plasma Protein Binding Assay
# Plasma protein binding (PPB) was determined using Rapid Equilibrium Dialysis chambers with 8 kDa cut-off inserts (Fisher Scientific UK Ltd, Leicestershire, UK). Rat (Sprague Dawley strain) plasma EDTA K2 (pooled, mixed sex, SeraLab, West Sussex, UK) was centrifuged (13,000 x g, 10 min) to remove precipitates before addition of compounds (initial concentration 5 µM). Concentrations were determined by liquid chromatography-tandem mass spectrometry (LC-MS-MS) (AB Sciex 3200 QTrap) after 4 h incubation at 37 °C with binding being calculated from the concentration of compound in each chamber. Assays were performed in replicate and the data expressed as mean ± s.e.
# Cellular Stability of Compounds […]
# Kaighn’s modification of Ham’s F12 medium (F12K). Cells were prepared for assay by washing 3 times with serum-free F12K. NR8383 Airway macrophages were grown in suspension culture in F12K, collected by centrifugation, washed in serum-free medium and aliquoted into test plates (1.4 x 10^6 cells/well). Both cell lines were treated with ADI compounds (100 nM) in serum -free F12K in a 5% CO 2 environment at 37 […]
# n-Octanol (0.7 mL), pre -saturated with 10 mM PBS, pH7.4, was added to test compound (~1 mg) in a 2 mL HPLC vial followed by PBS (0. 7 mL), which had been pre -saturated with n -octanol. […]
# [4] = hepatocyte stability (rat); type: in vitro ADME; details: hepatocytes
# [5] = hepatocyte stability (human); type: in vitro ADME; details: hepatocytes
# unsensitized BN rats = test: HDM extract challenge in unsensitized (naive) BN rats, duration of protection; type: in vivo
# [6] = read-out: hepatocyte intrinsic clearance
# [7] = HDM-naive rats, 15 μg/kg i.t. aerosol 2 h prior to HDM 10, BAL 48 h
# [8] = single i.t. dose (15 μg/kg compound 1, 46 μg/kg compound 2), BAL 48 h
# Description for Pharmacokinetics in rats: Soluble formulations were developed and verified by high performance liquid chromatography (HPLC)
# 1 mL/kg) and p.o. (5 mg/kg, 5 mL/kg) in non-fasted Sprague-Dawley rats (male, 200-300 g, 10-16 weeks
# of age, groups of three animals per route per compound). Timed blood samples were taken after dosing
# and plasma prepared for LC-MS-MS quantification of the test substance after inclusion of an internal
# standard. A non -compartmental model in WinNonlin software was used to calculate pharmacokinetic
smiles,measurement,setting,value
"CC(C)[C@H](NC(=O)[C@H](C)NC(=O)[C@@H](NC(=O)c1ccccc1)C(C)(C)C)C(=O)C(=O)NCc1ccccc1 [Compound 1, N-{(S)-1-[(S)-1-((S)-1-benzylaminooxalyl-2-methyl-propylcarbamoyl)-ethylcarbamoyl]-2,2-dimethyl-propyl}-benzamide]",cell stability,[1],100; 100
same,cell stability,[2],100; 100
same,remaining at 2 h,plasma stability (rat),100%
same,remaining at 2 h,plasma stability (human),100%
same,"fraction unbound at 4 h, 5 µM",[3],0.004
same,half-life,[4],1.97 h
same,CLint scaled,[4]; [6],28.2 mL/min/kg
same,half-life,[5],3.02 h
same,CLint scaled,[5]; [6],11.7 mL/min/kg
same,neutrophil response,"unsensitized BN rats; BAL performed 24 h after HDM extract challenge, dosed 2 h prior",clear inhibition
same,BAL monocyte/macrophage numbers,unsensitized BN rats; [7],suppressed
same,BAL neutrophil numbers,unsensitized BN rats; [7],suppressed
same,cellularity of BAL fluid,unsensitized BN rats; [7],suppressed
same,inhibition at 0.015 mg/kg,"unsensitized BN rats; Rattus norvegicus, Eosinophil, inhaled or nasal, 48 h, read-out: inhibition of eosinophil response at peak",> 60%
same,onset: temporal separation between drug dosing and HDM challenge required to achieve 50% inhibition of the eosinophil response,"unsensitized BN rats; estimated, Figure 5D–F, in words",faster in onset
same,"performance in vivo (maximum inhibition of the eosinophil response, Figure 5A)","unsensitized BN rats; focused library, durability of inhibition studies",performed well
same,effects on BAL neutrophils,"unsensitized BN rats; intervening pretreatment intervals, BAL 48 h",insignificant
same,inhibition of BAL monocytes/macrophages (significance),"unsensitized BN rats; pretreatment 60 min, 15 μg/kg i.t., BAL 48 h",significant
same,effects on BAL neutrophils,"unsensitized BN rats; short or long pretreatment intervals, BAL 48 h",inhibitory
same,effect on BAL monocytes/macrophages,"unsensitized BN rats; shorter pretreatment times, BAL 48 h",modest inhibition
same,effect on eosinophils with 6–8 h separation of dose and challenge,unsensitized BN rats; [8],substantial inhibition
same,time of administration before challenge giving peak effects on eosinophils,unsensitized BN rats; [8],2 h
same,bioavailability,"Pharmacokinetics in rats; male, Sprague-Dawley, rat, plasma, po, 5 mg/kg",39%
same,half-life,"Pharmacokinetics in rats; male, Sprague-Dawley, rat, plasma, po, 5 mg/kg, rat p.o., fasted",2.1 h
same,half-life,"Pharmacokinetics in rats; male, Sprague-Dawley, rat, plasma, po, 5 mg/kg, rat p.o., fed",2.9 h
same,volume of distribution,Pharmacokinetics in rats; rat p.o.,0.9 L/kg
same,clearance,"Pharmacokinetics in rats; rat p.o., fasted",27 (fasted) mL/min/kg
